How the values were obtained:
TLR3 signaling [1] = experiment: poly(I:C)-induced IL6 production by BEAS2B cells (ELISA); assay type: cell-based, human; settings: for Fold induction above poly(I:C) induced IL6 production (BEAS2B): BEAS2B cells, 0.13 µg/ml poly(I:C) ± peptides (5 µM), IL6 ELISA, number of experiments in parentheses, duplicate or triplicate per experiment
Method: (§1) BEAS2B cells were plated at 1.5×10^4 cells/well in 96-well plates. 24 h after plating, the media was replaced with 50 µl of media containing the indicated treatments. Unless otherwise noted, poly(I:C) and LPS were added to the medium of cells to final concentrations of 0.13 µg/ml and 1 µg/ml, respectively. To activate RIG-I, 10 nM shR9 with a 5′ triphosphate was transfected into cells using Lipofectamine 2000 (Invitrogen, Carlsbad, CA). Supernatants were collected after 18-24 h and assayed for IL6 or IL8 secretion using an ELISA kit according to the manufacturer's protocol (BD Biosciences, San Diego, CA). The IL6 or IL8 level was calculated based on a standard curve fitted using a sigmoidal variable slope dose-response using software from GraphPad Prism (La Jolla, CA) and normalized to […] per well. For PBMCs, an initial 150,000 cells per well were suspended in 100 µl of RPMI medium (Invitrogen) containing 10% FBS and incubated overnight at 37°C, 5% CO2. The cells were treated with poly(I:C) at 5 µg/ml in the absence or presence of LL37 (5.6 µM) for 20–24 h. […] The supernatants were collected and frozen until analysis. Cytokine levels for IP10, IL1α and MCP1 were measured using a Milliplex assay kit (Millipore, Billerica, MA).

BEAS2B cells = experiment: WST-1 viability of BEAS2B cells; assay type: cell-based, human
Method: Supplementary file pone.0026632.s002.tif: Figure S2 Effects of LL37 concentration on viability of BEAS2B cells±poly(I:C). Cell viability was assessed using the WST-1 assay (Clontech, Mountain View CA). After treatments, cells were incubated with WST-1 substrate for 4 h and absorbance was measured at 450 nm with 630 nm as reference. The readout performed in the absence of LL37 (i.e. Control) is defined as 100%. […] The graph is representative of five experiments. […] (TIF) Click here for additional data file.

[2] = test system: human peripheral blood mononuclear cells (PBMCs); experiment: Cytokine production in human PBMCs (Milliplex); assay type: cell-based; settings: peptide 5.6 µM
Method: as §1

TLR3 = TLR3 ISRE luciferase reporter assay in 293T/TLR3 cells; assay type: cell-based, human; settings: for Fold induction above Reovirus dsRNA (293T/TLR3 reporter): 293T/TLR3 cells, reovirus genomic RNA 2 µg/ml, peptides 2 µM, ISRE luciferase reporter
Method: Luciferase reporter assays were performed according to the protocol of [36]. Briefly, HEK 293T cells were plated in white-walled 96-well plates at 4.4×10^4 cells/well and transfected with plasmids pUNO-huTLR3 (0.5 ng/well), pISRE-Luc (30 ng/well) and phRL-TK (5 ng/well) using Lipofectamine 2000. The cells were grown for 24 h to allow expression from the plasmids. […] After 18–24 h of incubation, luciferase activity was determined using the Dual-Glo Luciferase assay system (Promega).

TLR3 signaling [3] = experiment: Viral RNA-induced IL6 production by BEAS2B cells; assay type: cell-based, human; settings: Sc37 2.2 µM, n>4
Method: Poly(I:C) (Amersham Biosciences or GE Healthcare) was reconstituted in phosphate buffered saline (PBS; Invitrogen, Carlsbad, CA). Size-selected Poly(I:C) of 50–125 bps were generated as described previously. Fluorescently-labeled Cy5-poly(I:C) was made as described in [43]. LPS was from Sigma-Aldrich Inc. DsRNAs from Reovirus were extracted from purified virions (a kind gift from Dr. Danthi, Indiana University). […] The ssRNAs were then adjusted to a 1∶1 molar ratio in PBS and heated to 95°C for five minutes followed by slow cooling to room temperature to allow the strands to anneal to form S4 dsRNA. Plant endornavirus BPEV dsRNA was the kind gift of R. Valverde (Louisana State University, Baton Rouge, LA). Positive-strand ssRNA from hepatitis virus JFH1 was made by in vitro transcription from a cDNA of JFH-1 [63]. Plasmids encoding the wild-type TLR3, TLR4 and RIG-I were from InvivoGen (San Diego, CA). […]
BEAS2B cells were plated at 1.5×10^4 cells/well in 96-well plates. […] The IL6 or IL8 level was calculated based on a standard curve fitted using a sigmoidal variable slope dose-response using software from GraphPad Prism (La Jolla, CA) and normalized to µg/ml per well. […] Cytokine levels for IP10, IL1α and MCP1 were measured using a Milliplex assay kit (Millipore, Billerica, MA).

[4] = Negative-stain electron microscopy of particle dimensions; assay type: physicochemical; settings: negative-stain TEM, pH 7.4, linear regression
Method: Poly(I:C) at 50 µg/ml (low molecular weight, Invitrogen) was incubated alone or with LL37 or Sc37 (each at 10 µM) in Tris-buffered saline, pH 7.4 at 4°C for 15 min. Sample of 10 µl was placed on top of a glow-discharged 400 mesh carbon-coated copper grid (EMS). After one min incubation at RT, the drop was removed by absorption onto filter paper. The grids containing the samples were then stained with 2% uranium acetate for 20 s. Excess stain was removed and the grids were air-dried for 15 min. Micrographs of the grids were taken with JEOL transmission microscope at 80 kV, using 40,000x magnification. The micrographs were collected and measurement of length and width of particles were calculated using EMAN software as described by. Data points for each treatment were fitted using linear regression and the slope of each line was calculated using GraphPad Prism software.

TLR4 signaling = experiment: LPS-induced IL6 production by BEAS2B cells (ELISA); assay type: cell-based, human; settings: LPS 1 µg/ml, T3/T4 0.6–10 µM, Tat and Arg(9) 10 µM
Method: as §1

## O=C(O[C@@H]1Cc2c(O)cc(O)cc2O[C@@H]1c1cc(O)c(O)c(O)c1)c1cc(O)c(O)c(O)c1 [EGCG]
TLR3 signaling [1]; BEAS2B, data not shown
  Effect on the Tat peptide's enhancement of IL6 production: did not affect

## CC[C@H](C)[C@H](NC(=O)[C@H](CCCCN)NC(=O)[C@H](CCC(=O)O)NC(=O)[C@H](CCCCN)NC(=O)[C@H](CO)NC(=O)[C@H](CCCCN)NC(=O)[C@H](CCCNC(=N)N)NC(=O)[C@H](Cc1ccccc1)NC(=O)[C@H](Cc1ccccc1)NC(=O)[C@H](CC(=O)O)NC(=O)CNC(=O)[C@H](CC(C)C)NC(=O)[C@@H](N)CC(C)C)C(=O)NCC(=O)N[C@@H](CCCCN)C(=O)N[C@@H](CCC(=O)O)C(=O)N[C@@H](Cc1ccccc1)C(=O)N[C@@H](CCCCN)C(=O)N[C@@H](CCCNC(=N)N)C(=O)N[C@H](C(=O)N[C@H](C(=O)N[C@@H](CCC(N)=O)C(=O)N[C@@H](CCCNC(=N)N)C(=O)N[C@H](C(=O)N[C@@H](CCCCN)C(=O)N[C@@H](CC(=O)O)C(=O)N[C@@H](Cc1ccccc1)C(=O)N[C@@H](CC(C)C)C(=O)N[C@@H](CCCNC(=N)N)C(=O)N[C@@H](CC(N)=O)C(=O)N[C@@H](CC(C)C)C(=O)N[C@H](C(=O)N1CCC[C@H]1C(=O)N[C@@H](CCCNC(=N)N)C(=O)N[C@H](C(=O)N[C@@H](CCC(=O)O)C(=O)N[C@@H](CO)C(=O)O)[C@@H](C)O)C(C)C)[C@@H](C)CC)C(C)C)[C@@H](C)CC [LL37]
BEAS2B cells; BEAS2B, WST-1, LL37 3 µM
  Toxicity in the presence of poly(I:C): did not show significant toxicity
BEAS2B cells; BEAS2B, WST-1, LL37 up to 5 µM, representative of five experiments
  Effect on cell viability in the absence of poly(I:C): no effect on cell viability
BEAS2B cells; at or less than 3 µM, by itself or in the presence of poly(I:C), WST-1, n = 5
  Effect on BEAS2B cell viability: minimal effects
[2]; data not shown
  Cytotoxicity judged by morphology of PBMCs: no obvious cytotoxicity

## COc1cc2ncnc(Nc3cccc(Cl)c3)c2cc1OC [tyrphostin AG 1478]
TLR3 signaling [1]; BEAS2B, unpublished observations
  Effect on IL6 production induced by poly(I:C) or poly(I:C) in combination with LL37: had no effect

## LLGNFFRKSKQKIGKQFKRIVQRIKNFFRNLVPRTQS [Sc37]
TLR3 signaling [1]
  Fold induction above poly(I:C) induced IL6 production (BEAS2B): 1.05±0.11 (6) fold
TLR3 signaling [1]; BEAS2B, peptide 2.2 µM, poly(I:C) 0.13 µg/ml, 20 h, LL37 n = 23, Sc37 n = 7
  Enhancement of poly(I:C)-induced IL6 levels compared to poly(I:C) alone: did not enhance IL6 production
TLR3; 293T/TLR3, peptide 2 µM, Reovirus dsRNA, LL37 n = 8, Sc37 n = 4
  Additional increase of reporter levels above that of the Reovirus dsRNAs: did not affect reporter activity
TLR3
  Fold induction above Reovirus dsRNA (293T/TLR3 reporter): 1.0±0.03 (9) fold
[2]; poly(I:C) 5 µg/ml, 24 h, n = 3
  Increase of IL1α, MCP1 and IP10 levels with poly(I:C) above poly(I:C) or peptide alone: did not significantly increase
TLR3 signaling [3]
  Effect on IL6 production by the viral RNAs tested: did not increase IL6 production
[4]
  Slope of best fit line of particle lengths and widths: 0.8 ± 0.05

## NAKTRRHERRRKLAIER [P22N(14-30), arginine-containing peptide]
TLR3 signaling [1]; 5 µM
  Fold induction above poly(I:C) induced IL6 production (BEAS2B): 1.0±0 (3) fold
TLR3 signaling [1]; listed as P22(14-30), 5 µM
  Fold induction above poly(I:C) induced IL6 production (BEAS2B): did not enhance TLR3 signaling
TLR3
  Fold induction above Reovirus dsRNA (293T/TLR3 reporter): 1.3±0.14 (4) fold

## RQIKIWFQNRRMKWKK [Penetrin, peptide derived from the protein antennapedia; cell-penetrating peptide]
TLR3 signaling [1]
  Fold induction above poly(I:C) induced IL6 production (BEAS2B): 2.9±1.2 (3) fold
TLR3
  Fold induction above Reovirus dsRNA (293T/TLR3 reporter): 1.1±0.05 (4) fold

## RRRRRRRRR [Arg(9), cell-penetrating peptide of nine arginines]
TLR4 signaling
  Effect on LPS-induced IL6 production: no effect on LPS signaling
TLR3
  Fold induction above Reovirus dsRNA (293T/TLR3 reporter): 1.5±0.17 (4) fold

## TRAQRRAAARGGGVVIAC [Peptide 3]
TLR3 signaling [1]
  Fold induction above poly(I:C) induced IL6 production (BEAS2B): 3±0.62 (8) fold
TLR3
  Fold induction above Reovirus dsRNA (293T/TLR3 reporter): 1 fold

## TRAQRRAAARGVQIVYKC [T4, peptide derived from the Brome mosaic virus (BMV) capsid]
TLR3 signaling [1]
  Fold induction above poly(I:C) induced IL6 production (BEAS2B): 5.6±1.4 (6) fold
TLR4 signaling
  Effect on LPS-induced IL6 production: not affected
TLR3
  Fold induction above Reovirus dsRNA (293T/TLR3 reporter): 1 fold

## TRAQRRAAARRNRACCPGCCS [T3, peptide derived from the Brome mosaic virus (BMV) capsid]
TLR3 signaling [1]
  Fold induction above poly(I:C) induced IL6 production (BEAS2B): 3±0.4 (8) fold
TLR4 signaling
  Effect on LPS-induced IL6 production: not affected
TLR3
  Fold induction above Reovirus dsRNA (293T/TLR3 reporter): 1.3±0.08 (4) fold

## TSAQSSAAASSNSACCPGCCS [T3Ser, variant of the peptide T3 that had the arginines substituted with serines]
TLR3 signaling [1]; 5 µM
  Fold induction above poly(I:C) induced IL6 production (BEAS2B): 0.8±0.12 (4) fold
TLR3 signaling [1]; listed as T3ser, 5 µM
  Fold induction above poly(I:C) induced IL6 production (BEAS2B): lost the ability to enhance IL6 production
TLR3
  Fold induction above Reovirus dsRNA (293T/TLR3 reporter): 1 fold

## YGRKKRRQRRR [Tat47-57, Tat peptide that is rich in basic residues; cell-penetrating peptide]
TLR3 signaling [1]; 5 µM
  Fold induction above poly(I:C) induced IL6 production (BEAS2B): 3.7±0.43 (10) fold
TLR3 signaling [1]; listed as Tat peptide, 5 µM
  Fold induction above poly(I:C) induced IL6 production (BEAS2B): at least 2.9 fold
TLR4 signaling
  Effect on LPS-induced IL6 production: no effect on LPS signaling
TLR3
  Fold induction above Reovirus dsRNA (293T/TLR3 reporter): 1.3±0.19 (3) fold

## mCRAMP
TLR3 signaling [1]; BEAS2B, KR18-37 4 µM, mCRAMP 5 µM, poly(I:C) 0.13 µg/ml, 24 h, n = 3
  Enhancement of IL6 production in response to poly(I:C): unable to enhance IL6 production

## poly(I:C)
TLR3 signaling [1]; BEAS2B, poly(I:C) added to medium, n = 12
  IL6 levels above basal levels: 15 ± 2.2 fold
[4]
  Slope of best fit line of particle lengths and widths: 0.53 ± 0.12
